# Data published in ChEMBL document CHEMBL1138210, “Discovery of potent, orally-active, and muscle-selective androgen receptor modulators based on an N-aryl-hydroxybicyclohydantoin scaffold” (J Med Chem, 2006).
# Legend:
# [1] = molecular target: T1, Androgen receptor (Rattus norvegicus, UniProt P15207)
# T1 sequence (P15207 whole entry): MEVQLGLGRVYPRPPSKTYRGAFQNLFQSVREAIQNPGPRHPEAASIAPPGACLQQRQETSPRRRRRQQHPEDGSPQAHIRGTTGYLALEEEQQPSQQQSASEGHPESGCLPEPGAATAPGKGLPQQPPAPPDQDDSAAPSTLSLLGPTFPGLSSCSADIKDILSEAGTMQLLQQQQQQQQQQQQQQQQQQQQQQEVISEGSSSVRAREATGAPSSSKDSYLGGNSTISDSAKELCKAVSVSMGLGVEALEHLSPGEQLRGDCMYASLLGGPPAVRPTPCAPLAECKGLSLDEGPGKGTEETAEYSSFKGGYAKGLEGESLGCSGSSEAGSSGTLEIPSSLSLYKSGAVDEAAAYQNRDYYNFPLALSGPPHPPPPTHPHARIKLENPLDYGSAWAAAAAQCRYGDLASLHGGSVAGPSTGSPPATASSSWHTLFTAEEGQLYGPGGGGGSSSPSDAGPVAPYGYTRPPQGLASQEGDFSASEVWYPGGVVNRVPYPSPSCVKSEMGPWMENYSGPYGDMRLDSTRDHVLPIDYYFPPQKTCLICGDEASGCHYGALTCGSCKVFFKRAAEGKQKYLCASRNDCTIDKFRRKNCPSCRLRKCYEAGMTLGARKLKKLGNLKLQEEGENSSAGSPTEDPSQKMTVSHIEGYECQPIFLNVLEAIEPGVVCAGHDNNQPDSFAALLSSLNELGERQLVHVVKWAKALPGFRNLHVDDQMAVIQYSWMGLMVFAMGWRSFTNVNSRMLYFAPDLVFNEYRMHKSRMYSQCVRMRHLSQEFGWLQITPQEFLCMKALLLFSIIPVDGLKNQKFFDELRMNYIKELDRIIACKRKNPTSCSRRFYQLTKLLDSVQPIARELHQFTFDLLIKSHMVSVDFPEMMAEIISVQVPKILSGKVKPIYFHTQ
# Description: Agonist activity at rat AR transfected in mouse C2C12 cells by luciferase reporter transactivation assay
# [2] = molecular target: T2, Androgen receptor (Homo sapiens, UniProt P10275); assay: biochemical
# T2 sequence (P10275 whole entry): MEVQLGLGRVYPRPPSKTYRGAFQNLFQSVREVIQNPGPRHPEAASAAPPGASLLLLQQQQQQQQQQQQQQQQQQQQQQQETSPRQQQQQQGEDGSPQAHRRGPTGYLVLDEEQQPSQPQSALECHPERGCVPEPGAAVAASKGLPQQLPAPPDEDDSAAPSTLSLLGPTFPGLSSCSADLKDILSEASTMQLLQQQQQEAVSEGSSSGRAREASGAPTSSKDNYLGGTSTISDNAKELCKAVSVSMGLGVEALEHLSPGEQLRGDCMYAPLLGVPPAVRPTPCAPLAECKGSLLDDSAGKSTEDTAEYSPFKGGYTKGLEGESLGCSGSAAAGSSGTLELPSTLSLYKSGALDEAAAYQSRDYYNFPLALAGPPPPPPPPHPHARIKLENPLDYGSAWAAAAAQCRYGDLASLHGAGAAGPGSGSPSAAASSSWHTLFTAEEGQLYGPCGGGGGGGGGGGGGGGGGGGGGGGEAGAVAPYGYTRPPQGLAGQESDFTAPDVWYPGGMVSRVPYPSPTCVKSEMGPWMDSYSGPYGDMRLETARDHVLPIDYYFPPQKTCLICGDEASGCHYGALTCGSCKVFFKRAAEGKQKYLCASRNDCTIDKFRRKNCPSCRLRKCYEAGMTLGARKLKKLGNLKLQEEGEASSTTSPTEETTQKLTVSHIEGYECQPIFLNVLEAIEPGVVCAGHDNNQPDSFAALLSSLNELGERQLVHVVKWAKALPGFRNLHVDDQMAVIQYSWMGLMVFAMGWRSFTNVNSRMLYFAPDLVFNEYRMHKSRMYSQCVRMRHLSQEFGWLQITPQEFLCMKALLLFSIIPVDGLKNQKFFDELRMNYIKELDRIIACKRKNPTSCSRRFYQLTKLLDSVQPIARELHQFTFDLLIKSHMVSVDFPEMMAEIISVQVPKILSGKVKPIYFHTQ
# Description: Displacement of [3H]DHT from human AR in MDA453 cells
# [3] = tested on: Rattus norvegicus; assay: Selectivity for stimulation of levator ani muscle over prostate in sc dosed castrated Sprague-Dawley rat; format: functional
# [4] = tested on: Rattus norvegicus; assay: Stimulation of prostate growth in sc dosed castrated Sprague-Dawley rat; format: functional; details: Prostate gland
# [5] = tested on: Rattus norvegicus; assay: Inhibition of LH secretion in sc dosed castrated Sprague-Dawley rat; format: functional, organism-based
# [6] = tested on: Rattus norvegicus; assay: Stimulation of levator ani muscle growth in sc dosed castrated Sprague-Dawley rat; format: functional
# [7] = tested on: Rattus norvegicus; assay: Selectivity for stimulation of levetor ani muscle over suppression of LH secretion in sc dosed castrated Sprague-Dawley rat; format: functional, Muscle tissue
# [8] = tested on: Rattus norvegicus; assay: Inhibition of LH secretion in orally dosed castrated Sprague-Dawley rat; format: functional; details: po
# [9] = tested on: Rattus norvegicus; assay: Stimulation of prostate growth in orally dosed castrated Sprague-Dawley rat; format: functional; details: Prostate gland, po
# [10] = tested on: Rattus norvegicus; assay: Stimulation of levator ani muscle growth in orally dosed castrated Sprague-Dawley rat; format: functional; details: po
# [11] = molecular target: T1, Androgen receptor; assay: Antagonist activity against rat AR transfected in mouse C2C12 cells by luciferase reporter transactivation assay relative to DHT; format: functional, cell-based
SMILES,EC50 [1],Ki [2],also measured
"O=C1[C@@H]2[C@H](O)CCN2C(=O)N1c1ccc([N+](=O)[O-])c2ccccc12 (single isomer, unassigned)",281 nM,1.5 nM,–
CCC(=O)O[C@H]1CC[C@H]2[C@@H]3CCC4=CC(=O)CC[C@]4(C)[C@H]3CC[C@]12C [TESTOSTERONE PROPIONATE],–,–,Ratio ED50 [3]: 2; ED50 [4]: 0.42 mg/kg; EC50 [5]: 0.26 mg/kg; ED50 [6]: 0.21 mg/kg; Ratio ED50 [7]: 1.2
O=C1C2CCCN2C(=O)N1c1ccc([N+](=O)[O-])c2ccccc12 (centres undefined),270 nM,1.7 nM,–
O=C1[C@@H]2[C@H](O)CCN2C(=O)N1c1ccc([N+](=O)[O-])c2ccccc12,1.5 nM,2.1 nM,–
N#Cc1ccc(N2C(=O)[C@@H]3[C@H](O)CCN3C2=O)c2ccccc12,2.3 nM,–,ED50 [8]: 60 mg/kg; ED50 [9]: > 100 mg/kg; ED50 [10]: 2 mg/kg
"N#Cc1ccc(N2C(=O)[C@@H]3[C@H](O)CCN3C2=O)c2ccccc12 (single isomer, unassigned)",1300 nM,–,IC50 [11]: 60 nM
O=C1[C@H]2[C@@H]3CC[C@@H](C3)N2C(=O)N1c1ccc([N+](=O)[O-])c2ccccc12,385 nM,1 nM,–
O=C1[C@H]2C[C@@H](O)CN2C(=O)N1c1ccc([N+](=O)[O-])c2ccccc12,320 nM,1.5 nM,–
N#Cc1ccc(N2C(=O)C3C(O)CCN3C2=O)c2ccccc12 (racemic),6.3 nM,–,–
O=C1C2C(O)CCN2C(=O)N1c1ccc([N+](=O)[O-])c2ccccc12 (racemic),4.4 nM,3.5 nM,–
O=C1[C@H]2C[C@H](O)CN2C(=O)N1c1ccc([N+](=O)[O-])c2ccccc12,265 nM,4.3 nM,–
N#Cc1ccc(N2C(=O)[C@H]3[C@@H]4CC[C@@H](C4)N3C2=O)c2ccccc12,> 1000 nM,24 nM,IC50 [11]: 260 nM
